This is an account of results in patent EP0061001A1, “Antiallergic agent comprising derivatives of adenosine” (Yamasa Shoyu Kabushiki Kaisha, priority 1981, dated 1982).

In data set [1] the test system is Passive cutaneous anaphylaxis (PCA). As to the kind of experiment: Passive cutaneous anaphylaxis (PCA) suppressing effect, method of J. Goose et al. The format is in vivo, rats (Sprague Dawley-strain). Particulars: iv, 40 min, rat PCA, compound given intravenously with antigen and Evans blue. On the procedure:
According to the method of J. Goose et al (see Immunology 16, 749, 1969), PCA reaction was carried out in the following manner.
To male rats (Sprague Dawley-strain; hereinafter abbreviated as SD-strain), weighing 120 to 150 g, 10 mg/kg of ovalubumin was administered intramuscularly and 2 x 10^10 cells of Bodetalla pertussis vaccine intraperitoneally. After 10 to 12 days, each rat was bled and antiserum was separated.
To other rats (SD-strain, weighing 120 to 150 g) shaved at the back, under ether anesthetization, 0.1 ml of the above antiserum diluted 4-fold was injected intradermally for dermal sensitization. After 48 hours, 1 mg/kg of ovalubumin (antigen), 1 mg/kg of Evans blue (dye) and various N^6-ω-aminoalkyl adenosine compounds and DSCG or isotonic saline were challenged intravenously. After 40 minutes, the diameter of dye spots on the skin and the leak quantity of dye were measured to determine ED50 (50% effective amount) for each compound.
The leak quantity of dye was determined by extracting the dye from the skin peeled off with potassium hydroxide, removing proteins with acetoneafter neutralization with phosphoric acid, and thereafter measuring absorbance at 620 nm of the resultant extract, which step was then followed by calculation therefrom. The N^6-ω-aminoalkyl adenosine compounds provided for the tests are enumerated below: […]

Another data set in a line: Acute toxicity tests. To be noted: mouse, in vivo, ip; male mice, intraperitoneally, free form in isotonic saline solution or suspension; brackets = 95% confidence limit. On the procedure: To ICR-JCL-strain mice (male, weighing 24 to 28 g), various N^6-w-aminoalkyl adenosine compound-s (each in free form) were administered as isotonic saline solutions or suspensions each in a dosage of 0.1 ml/10 g intraperitoneally for determination of LD50.

The mark [2] stands for this setting: diameter of dye spots on the skin after 40 minutes, read-out: ED50 By diameter.
Where [3] appears, read: leak quantity of dye after 40 minutes (absorbance at 620 nm), read-out: ED50 By dye quantity.

Where two headings read alike, the source gives them in different places.

The ED50 is the dose that gives a 50% effect, or the effect in half of the subjects. Usually LD50 stands for the dose at which mortality reaches 50%.

On to `NCCCNc1ncnc2c1ncn2[C@@H]1O[C@H](COP(=O)(O)O)[C@@H](O)[C@H]1O` [compound 5, N^6-(3-amino-n-propyl)-5'-AMP], for which the 50% effective dose (ED50) worked out at 0.46 mg/kg in data set [1] (setting [2]) and 0.31 mg/kg in data set [1] (setting [3]).
On to `NCCCCCCNc1ncnc2c1ncn2[C@@H]1O[C@H](CO)[C@@H](OP(=O)(O)O)[C@H]1O` [compound 9, N^6-(6-amino-n-hexyl)-3'-AMP], for which the figures for the ED50 in data set [1] (setting [2]) and in data set [1] (setting [3]) were 1.9 mg/kg and 0.7 mg/kg, respectively.
For the compound `NCCCCCCCCNc1ncnc2c1ncn2[C@@H]1O[C@H](CO)[C@@H](OP(=O)(O)O)[C@H]1O` [compound 10, N^6-(8-amino-n-octyl)-3'-AMP], the values for the ED50 in data set [1] (setting [2]) and in data set [1] (setting [3]) were 1.5 mg/kg and 0.7 mg/kg, respectively. Also, the LD50 in “Acute toxicity tests” is 220 mg/kg.
With `NCCCCCCCCCCNc1ncnc2c1ncn2[C@@H]1O[C@@H]2COP(=O)(O)O[C@H]2[C@H]1O` [compound 15, N^6-(10-amino-n-decanyl)-cAMP], the ED50 in data set [1] (setting [2]) was determined as 8.2 mg/kg; in data set [1] (setting [3]) it was 6 mg/kg.
As to `NCCCCCCNc1ncnc2c1ncn2[C@@H]1O[C@H](CO)[C@@H](O)[C@H]1O` [compound 2, N^6-(6-amino-n-hexyl)-Ado], the ED50 in data set [1] (setting [2]) came to 0.15 mg/kg; in data set [1] (setting [3]), 0.06 mg/kg.
Turning to `NCCCCCCNc1ncnc2c1ncn2[C@@H]1O[C@@H]2COP(=O)(O)O[C@H]2[C@H]1O` [compound 12, N^6-(6-amino-n-hexyl)-cAMP], the results for the ED50 in data set [1] (setting [2]) and in data set [1] (setting [3]) were 3.3 mg/kg and 3.2 mg/kg, respectively. The compound further came in with an LD50 in the data set “Acute toxicity tests” of 165 mg/kg.
As for `O=C(O)c1cc(=O)c2c(OCC(O)COc3cccc4oc(C(=O)O)cc(=O)c34)cccc2o1` [DSCG, disodium cromoglycate, reference compound], the ED50 was found to be 3.3 mg/kg in data set [1] (setting [2]) and 3 mg/kg in data set [1] (setting [3]).
As for `NCCCCCCCNc1ncnc2c1ncn2[C@@H]1O[C@H](CO)[C@@H](O)[C@H]1O` [compound 3, N^6-(7-amino-n-heptyl)-Ado], the ED50 in data set [1] (setting [2]) is 0.058 mg/kg; in data set [1] (setting [3]) it was 0.06 mg/kg. This compound yielded an LD50 in “Acute toxicity tests” of 145 mg/kg.
As for `NCCCCCCCCCNc1ncnc2c1ncn2[C@@H]1O[C@@H]2COP(=O)(O)O[C@H]2[C@H]1O` [compound 14, N^6-(9-amino-n-nonyl)-cAMP], the ED50 was > 3.3 mg/kg in data set [1] (setting [2]) and 3.3 mg/kg in data set [1] (setting [3]).
`NCCCCCCCCCNc1ncnc2c1ncn2[C@@H]1O[C@H](CO)[C@@H](O)[C@H]1O` [compound 4, N^6-(9-amino-n-nonyl)-Ado]: the ED50 in data set [1] (setting [2]) and in data set [1] (setting [3]) was 0.084 mg/kg in each case. In the data set “Acute toxicity tests”, this compound came in with an LD50 of 175 mg/kg.
`NCCCCCCCCCNc1ncnc2c1ncn2[C@@H]1O[C@H](COP(=O)(O)O)[C@@H](O)[C@H]1O` [compound 7, N^6-(9-amino-n-nonyl)-5'-AMP]: the results for the ED50 in data set [1] (setting [2]) and in data set [1] (setting [3]) were 0.29 mg/kg and 0.16 mg/kg, respectively. In the data set “Acute toxicity tests”, the LD50 turned out to be 195 mg/kg.
For `NCCCCNc1ncnc2c1ncn2[C@@H]1O[C@H](CO)[C@@H](OP(=O)(O)O)[C@H]1O` [compound 8], the ED50 in data set [1] (setting [2]) turned out to be 1.7 mg/kg; in data set [1] (setting [3]), 0.64 mg/kg.
For `NCCCNc1ncnc2c1ncn2[C@@H]1O[C@H](CO)[C@@H](O)[C@H]1O` [compound 1, N^6-(3-amino-n-propyl)-Ado], the results for the ED50 in data set [1] (setting [2]) and in data set [1] (setting [3]) were 0.87 mg/kg and 0.2 mg/kg, respectively.
Take `NCCCCCCNc1ncnc2c1ncn2[C@@H]1O[C@H](COP(=O)(O)O)[C@@H](O)[C@H]1O` [compound 6, N^6-(6-amino-n-hexyl)-5'-AMP]: the ED50 in data set [1] (setting [2]) amounted to 0.51 mg/kg; in data set [1] (setting [3]), 0.32 mg/kg.
Take `NCCCCCCCCNc1ncnc2c1ncn2[C@@H]1O[C@@H]2COP(=O)(O)O[C@H]2[C@H]1O` [compound 13, N^6-(8-amino-n-octyl)-cAMP]: the ED50 in data set [1] (setting [2]) was found to be 3.7 mg/kg; in data set [1] (setting [3]) it was 3.1 mg/kg.
For the compound `NCCCCNc1ncnc2c1ncn2[C@@H]1O[C@@H]2COP(=O)(O)O[C@H]2[C@H]1O` [compound 11, N^6-(4-amino-n-butyl)-cAMP], the ED50 amounted to 15 mg/kg in data set [1] (setting [2]) and 9.4 mg/kg in data set [1] (setting [3]).
